We go through 15 molecules from publication PMC9377006, “Discovery of Desmuramylpeptide NOD2 Agonists with Single-Digit Nanomolar Potency” (ACS Medicinal Chemistry Letters, 2022).

The target in one data set is T1, human NOD2 (Homo sapiens, UniProt Q9HC29).
T1 construct: host or cells: HEK-Blue NOD2 cells (derived from HEK293)
Put plainly: HEK-Blue NOD2 NF-κB SEAP reporter assay (NOD2 agonistic activity). Format: cell-based. How it is done: The synthesized desmuramylpeptides were evaluated for their dose-dependent NOD2 activity using the commercially available HEK-Blue NOD2 reporter cell line. This cell line is derived from HEK293 cells by cotransfection of human NOD2 and an NF-κB-inducible secreted embryonic alkaline phosphatase (SEAP). Activation of NOD2 and subsequently of NF-κB leads to the expression and secretion of SEAP, the level of which can be quantified colorimetrically. […]
two passages, 200 µg/mL Zeocin (Invivogen) was added to the medium every other passage to maintain selection pressure. The cells were incubated in a humidified atmosphere at 37 °C and 5% CO 2. […]
Aldrich), and 100 µg/mL streptomycin (Sigma -Aldrich).
The tested compounds were dissolved in DMSO and further di luted in culture medium to the desired final concentrations, such that the final DMSO concentration never exceeded 0.1%. […]
4.6 NOD1/NOD2-NF-kB reporter assay
HEK-Blue NOD2 or NOD1 cells were seeded (25,000 cells/well) in 96 -well plates in 100 µL HEK-Blue detection medium (Invivogen, San Diego, CA, USA) and treated with compounds ( 2 µM for fixed […]
the corresponding vehicle (0.1% DMSO). After 18 h of incubation (37 °C, 5% CO2), secreted embryonic alkaline phosphatase (SEAP) activity was determined spectrophotometrically as absorbance at 630 nm (BioTek Synergy microplate reader; Winooski, VT, USA). EC50 values were calculated using Prism software (version 9; GraphPad Software, CA, USA). The experiments were run in duplicates and repeated as at least three independent biological replicates. […]
Background: In a reporter assay the amount or activity of a reporter protein is the signal.

For another data set, the system named is PBMCs. Kind of data set: Cytokine release from peripheral blood mononuclear cells. Type of data set: cell-based. As to conditions: human PBMCs, 18 h; NOD2 agonists 1 μM; LPS 10 ng/mL; IFN-γ 200 U/mL. The text has this: Encouraged by the potent NOD2 activity of 40, we preliminarily evaluated its immunostimulatory potential in human primary peripheral blood mononuclear cells (PBMCs). Specifically, we first investigated the ability of 40 to induce cytokine production in PBMCs. While activation of NOD2 alone is sufficient to elicit cytokine responses, these responses are usually of low intensity. However, NOD2 agonists can act in synergy with ligands of other innate immune receptors and proinflammatory cytokines to induce considerably stronger responses. We were particularly intrigued by the synergistic interactions between NOD2, TLR4, and IFN-γ. The synergy between NOD2 agonists and TLR4 agonists in terms of cytokine secretion, including IFN-γ, is well-established.[29],[30] Similarly, IFN-γ has previously been reported to augment the MDP-mediated activation and cytokine production by dendritic cells and macrophages.[31],[32]
Figure 2 Synergistic effects of 40 with LPS and IFN-γ on induction of cytokine production from PBMCs. Cytokine concentrations were measured after 18 h of stimulation with NOD2 agonists (1 μM) in the presence or absence of LPS (10 ng/mL) and IFN-γ (200 U/mL) or the corresponding vehicle (0.1% DMSO; NT). Data are expressed as mean ± SEM of three independent experiments. Statistical significance was determined by one-way ANOVA followed by Bonferroni’s multiple-comparisons test; *, p < 0.05, **, p < 0.01, ***, p < 0.001 versus vehicle-treated control; ##, p < 0.01, ###, p < 0.001 versus 40 or LPS alone.
Figure S5. The effect of 40 on the production of cytokines from human PBMCs is NOD2 -dependent. PBMCs were pre-incubated for 1 h in the presence or absence of the NOD2 antagonist SG84 (10 µM), before the addition of 40 (1 µM). Cytokine concentrations in supernatants were measured after 18 h stimulation.
Data are expressed as mean s ± SEM of 3 independent experiments. Statistical significance was determined by one-way ANOVA followed by Bonferroni’s multiple comparisons test; **, p < 0.01, ***, p < 0.001. […]
4.9 Cytokine release from peripheral blood mononuclear cells
Peripheral blood mononuclear cells were seeded ( 500,000 cells/well) in 24-well plates in 500 µL growth medium and treated with MDP (1 µM), 2 (1 µM), or 40 (1 µM), in the presence or absence of LPS (10 ng/mL) or IFN-γ (200 U/mL), or the corresponding vehicle (0.1% DMSO). In some wells, PBMCs were pre-treated for 1 h with the NOD2 antagonist SG84 (10 µM), before the addition of 40 (1 µM). Cell-free supernatants were collected after 18 h of incubation (37 °C, 5% CO2) and stored at -80 °C until tested.
Cytokine production was determined with BD Cytometric Bead Array human inflammatory cytokines kit (BD Bioscience) on an Attune NxT flow cytometer (Thermo Fisher Scientific, Waltham, MA, USA). Standard curves were generated using recombinant cytokines contained in the kit. The data were analyzed using the FlowJo (Tree Star, Inc., Ashland, OR, USA) and Prism (GraphPad, San Diego, CA, USA) software.

Data set [1] concerns K562 cancer cells. Also noted: method as in PMID 34043358. The note with it: cited from earlier work.
Data set [2] deals with K562 cancer cells. Put plainly: PBMC cytotoxicity against K562 cancer cells. The note with it: 1 μM + LPS 1 μg/mL or IFN-γ 200 U/mL, 18 h; 40:1, 4 h. Format: cell-based. The method, then:
In addition, we also investigated the ability of 40, both alone and in combination with LPS and IFN-γ, to induce direct and nonspecific cytolytic activity of PBMCs against cancer cells. For this purpose, we used a functional cytotoxicity assay based on the coincubation of preactivated PBMCs and fluorescently labeled K562 cancer cells.[33] Among the heterogeneous subpopulations of PBMCs, natural killer (NK) cells and, to a lesser extent, monocytes represent the main effector cell types in this assay. NK cells play an essential role in tumor and viral immunosurveillance, both through direct cytolytic destruction of aberrant cells and by facilitating the recruitment and activation of other immune cells through the secretion of cytokines.[34] In addition to their well-established role in cancer immunotherapy, NK cells thus also provide an attractive target in the development of vaccine adjuvants, particularly when Th1 cellular immune responses are preferred.[35] Other cell populations, however, may contribute to the magnitude of NK cell-mediated responses via cytokine secretion. To account for the contribution of these accessory cells and to more accurately represent in vivo conditions, the entire PBMC population was used instead of isolated NK cells.
Figure 3 2 and 40 synergize with LPS and IFN-γ to induce the cytotoxicity of PBMCs against K562 cancer cells. Following 18 h of stimulation of PBMCs with 2 (1 μM) or 40 (1 μM) in the presence or absence of LPS (1 μg/mL) and IFN-γ (200 U/mL) or the corresponding vehicle (0.1% DMSO; NT), K562 cells were added in a 40:1 effector to target cell ratio. Cytotoxicity was determined after 4 h of coincubation. IL-2 (200 U/mL) was used as the positive control. Data are shown as relative activities to vehicle-treated control (0.1% DMSO) and are the means ± SEMs of duplicates of two independent experiments. Statistical significance was determined by one-way ANOVA followed by Dunnet’s multiple-comparisons test; **, p < 0.01, ***, p < 0.001. […]
4.8 Peripheral blood mononuclear cell cytotoxicity
The PBMC cytotoxicity assays using K562 cells were performed as described previously, with some modifications.2 PBMCs were seeded (400,000 cells/well) in duplicates in 96 -well U-bottom plates and treated with 2 (1 µM) or 40 (1 µM), in the presence or absence of LPS (1 µg/mL) or IFN-γ (200 U/mL), IL-2 (200 U/mL), or the corresponding vehicle (0.1% DMSO) for 18 h. K562 were stained with carboxyfluorescein succinimidyl ester (CFSE, Invitrogen, Carlsbad, CA, USA), washed twice with complete medium, and added (10,000 cells/well) to the pre-treated PBMCs for a final effector cell to target tumor cell ratio of 40:1. After a 4 h coincubation (37 °C, 5% CO2), cells were stained with Sytox Blue dead cell stain (Invitrogen) and analyzed using an Attune NxT flow cytometer (Thermo Fisher Scientific, Waltham, MA, USA) and FlowJo software (Tree Star, Inc., Ashland, OR, USA). Cells that were positive for both CFSE and Sytox Blue were defined as dead K562 cells. PBMCs alone and CFSE-labeled K562 cells alone were also treated with the compounds at the same concentrations and stained with Sytox Blue to exclude any direct cytotoxicity of the compounds towards the PBMCs and cancer cells.
4.9 Cytokine release from peripheral blood mononuclear cells […]

Where [3] appears, read: HEK-Blue NOD2 cells, 18 h, means ± SEMs of at least three independent experiments, 8 or 16 concentrations (0.1 nM to 20 μM).

T1 sequence (Q9HC29 whole entry): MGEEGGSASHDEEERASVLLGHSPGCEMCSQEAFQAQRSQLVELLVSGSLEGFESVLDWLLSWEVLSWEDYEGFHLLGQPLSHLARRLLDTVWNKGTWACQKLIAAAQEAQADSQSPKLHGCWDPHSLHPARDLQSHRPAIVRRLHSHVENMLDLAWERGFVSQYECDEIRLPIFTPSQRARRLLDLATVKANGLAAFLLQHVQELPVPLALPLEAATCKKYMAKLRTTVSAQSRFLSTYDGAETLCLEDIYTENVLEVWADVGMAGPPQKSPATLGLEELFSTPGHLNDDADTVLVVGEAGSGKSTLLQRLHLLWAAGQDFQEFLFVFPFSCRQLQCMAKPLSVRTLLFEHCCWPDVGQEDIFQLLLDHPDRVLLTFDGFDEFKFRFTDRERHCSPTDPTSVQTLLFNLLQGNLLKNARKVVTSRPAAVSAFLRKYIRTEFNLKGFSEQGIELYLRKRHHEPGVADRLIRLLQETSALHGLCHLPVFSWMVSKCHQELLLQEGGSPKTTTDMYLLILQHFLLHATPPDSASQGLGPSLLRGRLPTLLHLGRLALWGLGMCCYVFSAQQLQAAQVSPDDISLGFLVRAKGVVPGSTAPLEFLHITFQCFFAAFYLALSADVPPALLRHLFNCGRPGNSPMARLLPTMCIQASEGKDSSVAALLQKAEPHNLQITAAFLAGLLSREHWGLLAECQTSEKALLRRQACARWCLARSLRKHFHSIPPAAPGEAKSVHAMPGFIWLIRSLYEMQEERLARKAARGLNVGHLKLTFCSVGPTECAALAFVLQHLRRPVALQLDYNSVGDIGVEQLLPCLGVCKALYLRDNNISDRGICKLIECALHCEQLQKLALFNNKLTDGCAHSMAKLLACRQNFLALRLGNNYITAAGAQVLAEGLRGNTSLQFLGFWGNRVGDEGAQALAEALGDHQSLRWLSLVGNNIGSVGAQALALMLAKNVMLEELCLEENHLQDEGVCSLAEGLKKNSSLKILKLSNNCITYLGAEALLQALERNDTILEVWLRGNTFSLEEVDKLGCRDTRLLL

A word on the EC50: it is the midpoint of the concentration-response curve. As to `CC(=O)NC1C(O)OC(CO)C(O)C1OC(C)C(=O)NC(C)C(=O)NC(CCC(=O)O)C(N)=O` (stereo not drawn) [MDP, muramyl dipeptide, reference compound], the half-maximal effective concentration (EC50) at human NOD2 (setting [3]) is 0.203 ± 0.012 µM. Also, in the data set with PBMCs, the “production of IL-1β, IL-6, IL-8 and TNF-α, stimulant alone” value (from here on “production of IL-1β”) is recorded as “modest production”.
For `CCOC(=O)CC[C@@H](NC(=O)[C@@H](NC(=O)CNC(=O)c1cc2ccccc2o1)C(C)C)C(=O)OCC` [Compound 30], the concentration for a half-maximal effect (EC50) on human NOD2 (HEK-Blue NOD2 cells) was 4.34 µM; at human NOD2 (setting [3]), 4.34 ± 0.468 µM.
Regarding `CCOC(=O)CC[C@@H](NC(=O)[C@@H](NC(=O)CNC(=O)c1cc2cc([N+](=O)[O-])ccc2o1)C(C)C)C(=O)OCC` [Compound 33], the EC50 at human NOD2 (setting [3]) turned out to be 0.76 ± 0.084 µM.
Still for that read-out and setting: to `CCOC(=O)CC[C@@H](NC(=O)[C@H](CCc1ccccc1)NC(=O)CNC(=O)/C=C/c1ccc(O)c(OC)c1)C(=O)OCC` [Compound 17] belongs 0.42 ± 0.041 µM.
`COc1cc(/C=C/C(=O)NCC(=O)N[C@H](C(=O)N[C@H](CCC(=O)OC2CCCC2)C(=O)OC2CCCC2)C(C)C)ccc1O` [Compound 2]: the “induction of cytotoxic activity of PBMCs (previous observations)” value in the data set on K562 cancer cells [1] was “failed to induce”. For the same molecule, the “LPS- and IFN-γ-induced cytotoxic activity of PBMCs against K562, costimulation” value in the data set on K562 cancer cells [2] is recorded as “significantly enhanced”. Moreover, the “production of IL-1β” value with PBMCs is on record as “modest production”.
Consider `CCOC(=O)CC[C@@H](NC(=O)[C@@H](NC(=O)CNC(=O)c1cc2ccc(Br)cc2o1)C(C)C)C(=O)OCC` [Compound 31], for which the figures for the EC50 at human NOD2 (HEK-Blue NOD2 cells) and at human NOD2 (setting [3]) were 1.93 µM and 1.93 ± 0.168 µM, respectively.
Turning to “lipopolysaccharide [LPS, reference compound]”, in the data set with PBMCs, the “production of IL-1β” value is reported as “strong increase”.
Consider `CCOC(=O)CC[C@@H](NC(=O)[C@@H](NC(=O)CNC(=O)/C=C/c1ccc(O)c(OC)c1)C12CC3CC(CC(C3)C1)C2)C(=O)OCC` [Compound 16], for which the EC50 on human NOD2 (setting [3]) was above 10 µM.
Still for that read-out and setting: the result for `CCOC(=O)CC[C@@H](NC(=O)[C@@H](NC(=O)CNC(=O)c1cc2cc(Br)ccc2o1)C(C)C)C(=O)OCC` [Compound 32] reads 0.316 ± 0.03 µM.
Turning to `CCOC(=O)CC[C@@H](NC(=O)[C@@H](NC(=O)CNC(=O)c1nc(-c2ccccc2)oc1C)C(C)C)C(=O)OCC` [Compound 34], the 50% effective concentration (EC50) on human NOD2 (HEK-Blue NOD2 cells) was determined as 2.62 µM; on human NOD2 (setting [3]) it was 2.62 ± 0.209 µM.
Regarding `COc1cc(/C=C/C(=O)NCC(=O)N[C@H](C(=O)N[C@H](CCC(=O)OC2CCCC2)C(=O)OC2CCCC2)C(C)C)ccc1OC(=O)CC12CC3CC(CC(C3)C1)C2` [Compound 41], the 50% effective concentration (EC50) on human NOD2 (setting [3]) was determined as 0.044 ± 0.009 µM.
With `CCOC(=O)CC[C@@H](NC(=O)[C@@H](NC(=O)CNC(=O)/C=C/c1ccc(O)c(OC)c1)C(C)C)C(=O)OCC` [Compound 1], the “induction of cytotoxic activity of PBMCs (previous observations)” value with K562 cancer cells [1] is recorded as “failed to induce”.
On to `CCOC(=O)CC[C@@H](NC(=O)[C@@H](NC(=O)CNC(=O)/C=C/c1ccc2c(c1)OCO2)C(C)C)C(=O)OCC` [Compound 29], for which the results for the EC50 at human NOD2 (HEK-Blue NOD2 cells) and at human NOD2 (setting [3]) were 2.67 µM and 2.67 ± 0.357 µM, respectively. For the same molecule, the “reduction in potency relative to 1” value at human NOD2 (NOD2 EC50 versus compound 1) turned out to be 30 fold.
As to `CCOC(=O)CC[C@@H](NC(=O)[C@H](Cc1ccncc1)NC(=O)CNC(=O)/C=C/c1ccc(O)c(OC)c1)C(=O)OCC` [Compound 15], on human NOD2 (20 μM, HEK-Blue NOD2 cells), the “NOD2 agonistic activity at the highest concentration tested” value is recorded as “only minor NOD2 agonistic activity”. At human NOD2 (setting [3]), the EC50 was above 10 µM.

B1: interferon-γ (protein, UniProt P01579 24-161, looked up)
Interferon gamma: QDPYVKEAENLKKYFNAGHSDVADNGTLFLGILKNWKEESDRKIMQSQIVSFYFKLFKNFKDDQSIQKSVETIKEDMNVKFFNSNKKKRDDFEKLTNYSVTDLNVQRKAIHELIQVMAELSPAAKTGKRKRSQMLFRG
notes: proinflammatory cytokine used as costimulus
Take B1: the “production of IL-1β” value with PBMCs is “negligible cytokine secretion”.
